Assay results published in patent US20260174786A1, “A NITROGEN-CONTAINING SPIROCYCLIC COMPOUND, PHARMACEUTICAL COMPOSITION AND USE THEREOF” (Prime Gene Therapeutics Co., Ltd., priority 2022, published 2026).

target: T1, hTRPV3 (Homo sapiens, UniProt Q8NET8); experiment: Whole cell patch clamp inhibition rate test on HEK-293 cells instantaneously expressing TRPV3; type: cell-based; conditions: HEK293; hTRPV3, single concentration 0.3 μM
T1 construct: expressed in transfected cells; host or cells: HEK-293
T1 sequence (Q8NET8 1-790): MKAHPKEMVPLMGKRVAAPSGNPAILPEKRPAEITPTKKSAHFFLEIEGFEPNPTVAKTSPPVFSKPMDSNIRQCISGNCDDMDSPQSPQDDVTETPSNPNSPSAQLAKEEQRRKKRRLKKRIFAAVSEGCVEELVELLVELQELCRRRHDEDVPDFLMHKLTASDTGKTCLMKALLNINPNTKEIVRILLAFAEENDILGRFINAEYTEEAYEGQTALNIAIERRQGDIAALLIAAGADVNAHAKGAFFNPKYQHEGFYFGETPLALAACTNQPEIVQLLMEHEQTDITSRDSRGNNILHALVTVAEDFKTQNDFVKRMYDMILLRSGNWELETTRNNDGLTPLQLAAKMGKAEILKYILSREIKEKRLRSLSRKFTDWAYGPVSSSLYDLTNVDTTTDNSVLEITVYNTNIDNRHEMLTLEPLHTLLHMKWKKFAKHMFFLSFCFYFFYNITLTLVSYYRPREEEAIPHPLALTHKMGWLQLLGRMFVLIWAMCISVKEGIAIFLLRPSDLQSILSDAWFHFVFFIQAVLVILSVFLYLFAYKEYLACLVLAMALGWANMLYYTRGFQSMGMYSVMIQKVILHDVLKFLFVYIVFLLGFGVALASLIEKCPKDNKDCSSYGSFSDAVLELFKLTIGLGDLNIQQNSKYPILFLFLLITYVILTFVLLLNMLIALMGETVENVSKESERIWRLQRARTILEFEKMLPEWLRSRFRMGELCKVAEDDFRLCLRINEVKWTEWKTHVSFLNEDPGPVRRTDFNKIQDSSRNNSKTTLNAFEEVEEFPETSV
Protocol: In this study, HEK-293 cells instantaneously expressing TRPV3 were used for experimental detection.
The operation steps are as follows:
The cells were cultured in DMEM medium containing 10% fetal bovine serum at a temperature of 37° C. and a carbon dioxide concentration of 5%.
Day 1: Cells were inoculated into a 6-well plate with 5×10^5 cells per well.
Day 2: Transfection was performed using Lipofectamine 3000 transfection reagent, with a plasmid to transfection reagent ratio of 1 μg: 2 μL. The total amount of plasmid used per well was 3 μg. Specifically, two sterile centrifuge tubes were taken and 100 μL Opti-MEM was added to each tube. 6 μL Lipofectamine 3000 was added to one tube and mixed well; and 3 μg plasmid was added to another tube and mixed well, and then 6 μL P3000 was added and mixed well; Subsequently, the diluted plasmid DNA was added to diluted Lipofectamine 3000 and incubated at room temperature for 10-15 min. DNA liposome complex was dropped into the cells, shaked gently and mixed well, and then cultured in an incubator. The liquid was changed after 4 to 6 h.
Day 3: The cells were digested and seeded into 24 well plates with pre-placed cover slides, with 8×10^3 cells per well.
Day 4: Patch clamp testing was performed.
The voltage stimulation protocol for recording TRPV3 current using whole cell patch clamp is as follows: after forming a whole cell seal, a cell membrane voltage clamp was set at −80 mV. Firstly, a membrane potential was recorded at 0 mV, and then a voltage was command to start from −100 mV, to depolarize in the form of Ramp to 100 mV within 100 ms, and finally restore to 0 mV. Data collection was repeated every 5 seconds to observe the inhibitory effect of pharmaceutical on peak current. Experimental data was collected by EPC 10 amplifier (HEKA) and stored in PatchMaster (HEKA) software.
A microelectrode puller was used to pull the capillary glass tube into a recording electrode. The electrode filled with intracellular fluid was inserted into a microelectrode holder, and a microelectrode manipulator was operated under an inverted microscope to immerse the electrode in extracellular fluid and an electrode resistance (Rpip) was recorded. The electrode was brought into contact with the cell surface and a negative pressure suction was applied to form a high resistance seal (GΩ). At this point, a fast capacitance compensation was performed, and negative pressure was continued to apply in order to break the cell membrane, so that a whole cell recording mode was formed. Then, a slow capacitance compensation was performed and experimental parameters such as film capacitance (Cm) and series resistance (Rs) were recorded. No leakage compensation was provided.
When the TRPV3 current recorded by the whole cell had stabilized, administration was started. Each pharmaceutical concentration acted for 5 minutes (or until the current stabilized) before detecting the next concentration. A plurality of concentrations was tested for each test compound. A cover glass covered with cells was placed in a recording bath under an inverted microscope. A blank control extracellular solution and a working fluid for the compound to be tested sequentially flowed through the recording bath from low concentration to high concentration using gravity perfusion to act on the cells. Liquid exchange was performed using a peristaltic pump during recording. The current detected by each cell in the extracellular fluid without the compound served as its own control group. Each concentration was independently tested twice using at least two cells. All electrophysiological tests were conducted at room temperature.

SMILES	inhibition at 0.3 µM
O=C(c1ccc(C(F)(F)F)cn1)N1CCC2(CC(O)c3cc(-c4ccccc4C4CC4)ccc32)C1 (stereo not shown) [Example 50, (5-(2-cyclopropylphenyl)-3-hydroxy-2,3-dihydrospiro[indene-1,3′-pyrrolidine]-1′-yl)(5-(trifluoromethyl)pyridin-2-yl) ketone]	70 to 100%
O=C(c1cccc(Cl)n1)N1CCC2(CC(O)c3cc(-c4ccccc4C4CC4)ccc32)C1 (stereo not shown) [Example 51, (6-chloropyridin-2-yl)(5-(2-cyclopropylphenyl)-3-hydroxy-2,3-dihydrospiro[indene-1,3′-pyrrolidine]-1′-yl)ketone]	70 to 100%
O=C(c1ncccc1Cl)N1CCC2(CC(O)c3cc(-c4ccccc4C4CC4)ccc32)C1 (stereo not shown) [Example 52, (3-chloropyridin-2-yl)(5-(2-cyclopropylphenyl)-3-hydroxy-2,3-dihydrospiro[indene-1,3′-pyrrolidine]-1′-yl)ketone]	50 to 70%
Cc1cccc(C(=O)N2CCC3(CC(O)c4cc(-c5ccccc5C5CC5)ccc43)C2)n1 (stereo not shown) [Example 53, (5-(2-cyclopropylphenyl)-3-hydroxy-2,3-dihydrospiro[indene-1,3′-pyrrolidine]-1′-yl)(6-methylpyridin-2-yl)ketone]	70 to 100%
O=C(c1ccc(F)c(Cl)n1)N1CCC2(CC(O)c3cc(-c4ccccc4C4CC4)ccc32)C1 (stereo not shown) [Example 54, (6-chloro-5-fluoropyridin-2-yl)(5-(2-cyclopropylphenyl)-3-hydroxy-2,3-dihydrospiro[indene-1,3′-pyrrolidine]-1′-yl)ketone]	70 to 100%
COc1ncnc(OC)c1C(=O)N1CCC2(CC(O)c3cc(-c4ccccc4C4CC4)ccc32)C1 (stereo not shown) [Example 56, (5-(2-cyclopropylphenyl)-3-hydroxy-2,3-dihydrospiro[indene-1,3′-pyrrolidine]-1′-yl)(4,6-dimethoxypyrimidin-5-yl)ketone]	< 25%
CC(C)c1ccccc1-c1ccc2c(c1)C(O)CC21CCN(C(=O)c2ccn3nccc3n2)C1 (stereo not shown) [Example 57, (3-hydroxy-5-(2-isopropylphenyl)-2,3-dihydrospiro[indene-1,3′-pyrrolidine]-1′-yl)(pyrazolo[1,5-a]pyrimidin-5-yl) ketone]	50 to 70%
CC(C)c1ccccc1-c1ccc2c(c1)C(O)CC21CCN(C(=O)c2ccc(F)cc2)C1 (stereo not shown) [Example 61, (4-fluorophenyl)(3-hydroxy-5-(2-isopropylphenyl)-2,3-dihydrospiro[indene-1,3′-pyrrolidine]-1′-yl)ketone]	70 to 100%
CC(C)c1ccccc1-c1ccc2c(c1)C(O)CC21CCN(C(=O)C2CCN(C)CC2)C1 (stereo not shown) [Example 74, (3-hydroxy-5-(2-isopropylphenyl)-2,3-dihydrospiro[indene-1,3′-pyrrolidine]-1′-yl)(1-methylpiperidin-4-yl) ketone]	< 25%
CCc1ccccc1-c1ccc2c(c1)C(O)CC21CCN(C(=O)c2ccc(F)cn2)C1 (stereo not shown) [Example 80, (5-(2-ethylphenyl)-3-hydroxy-2,3-dihydrospiro[indene-1,3′-pyrrolidine]-1′-yl)(5-fluoropyridin-2-yl) ketone]	70 to 100%
O=C(c1ccc(F)cn1)N1CCC2(CC(O)c3cc(-c4ccccc4Cl)ccc32)C1 (stereo not shown) [Example 81, (5-(2-chlorophenyl)-3-hydroxy-2,3-dihydrospiro[indene-1,3′-pyrrolidine]-1′-yl)(5-fluoropyridin-2-yl) ketone]	50 to 70%

The remaining lines, values ahead:

inhibition at 0.3 µM	SMILES
70 to 100%	CC(C)c1ccccc1-c1ccc2c(c1)C(O)CC21CCN(C(=O)c2ccc(Cl)cn2)C1 (stereo not shown) [Example 58, (5-chloropyridin-2-yl)(3-hydroxy-5-(2-isopropylphenyl)-2,3-dihydrospiro[indene-1,3′-pyrrolidine]-1′-yl)ketone]
70 to 100%	CC(C)c1ccccc1-c1ccc2c(c1)C(O)CC21CCN(C(=O)c2ccccn2)C1 (stereo not shown) [Example 60, (3-hydroxy-5-(2-isopropylphenyl)-2,3-dihydrospiro[indene-1,3′-pyrrolidine]-1′-yl)(pyridin-2-yl)ketone]
70 to 100%	COc1cnc(C(=O)N2CCC3(CC(O)c4cc(-c5ccccc5C(C)C)ccc43)C2)cn1 (stereo not shown) [Example 63, (3-hydroxy-5-(2-isopropylphenyl)-2,3-dihydrospiro[indene-1,3′-pyrrolidine]-1′-yl)(5-methoxypyrazin-2-yl) ketone]
70 to 100%	Cc1cnc(C(=O)N2CCC3(CC(O)c4cc(-c5ccccc5C(C)C)ccc43)C2)cn1 (stereo not shown) [Example 65, (3-hydroxy-5-(2-isopropylphenyl)-2,3-dihydrospiro[indene-1,3′-pyrrolidine]-1′-yl)(5-methylpyrazin-2-yl)ketone]
25 to 50%	CC(C)c1ccccc1-c1ccc2c(c1)C(O)CC21CCN(C(=O)c2ncccn2)C1 (stereo not shown) [Example 66, (3-hydroxy-5-(2-isopropylphenyl)-2,3-dihydrospiro[indene-1,3′-pyrrolidine]-1′-yl)(pyrimidin-2-yl)ketone]
50 to 70%	CC(C)c1ccccc1-c1ccc2c(c1)C(O)CC21CCN(C(=O)c2ccncn2)C1 (stereo not shown) [Example 67, (3-hydroxy-5-(2-isopropylphenyl)-2,3-dihydrospiro[indene-1,3′-pyrrolidine]-1′-yl)(pyrimidin-4-yl)ketone]
< 25%	COCc1cnc(C(=O)N2CCC3(CC(O)c4cc(-c5ccccc5C(C)C)ccc43)C2)cn1 (stereo not shown) [Example 69, (3-hydroxy-5-(2-isopropylphenyl)-2,3-dihydrospiro[indene-1,3′-pyrrolidine]-1′-yl)(5-(methoxymethyl)pyrazin-2-yl)ketone]
50 to 70%	CC(C)c1ccccc1-c1ccc2c(c1)C(O)CC21CCN(C(=O)c2cocn2)C1 (stereo not shown) [Example 70, (3-hydroxy-5-(2-isopropylphenyl)-2,3-dihydrospiro[indene-1,3′-pyrrolidine]-1′-yl)(oxazol-4-yl)ketone]
50 to 70%	CC(C)c1ccccc1-c1ccc2c(c1)C(O)CC21CCN(C(=O)c2cc[nH]n2)C1 (stereo not shown) [Example 71, (3-hydroxy-5-(2-isopropylphenyl)-2,3-dihydrospiro[indene-1,3′-pyrrolidine]-1′-yl)(1H-pyrazol-3-yl)ketone]
25 to 50%	CC(C)c1ccccc1-c1ccc2c(c1)C(O)CC21CCN(C(=O)c2ccc3cn[nH]c3n2)C1 (stereo not shown) [Example 75, (3-hydroxy-5-(2-isopropylphenyl)-2,3-dihydrospiro[indene-1,3′-pyrrolidine]-1′-yl)(1Hpyrazolo[3,4-b]pyridin-6-yl) ketone]
50 to 70%	CC(C)c1ccccc1-c1ccc2c(c1)C(O)CC21CCN(C(=O)c2cc3cccn3cn2)C1 (stereo not shown) [Example 76, (3-hydroxy-5-(2-isopropylphenyl)-2,3-dihydrospiro[indene-1,3′-pyrrolidine]-1′-yl)(pyrrolo[1,2-c]pyrimidin-3-yl)ketone]
